The results in this text go back to PMC11641365, “Evaluation of In Vitro Biological Activity of Flavanone/Chromanone Derivatives: Molecular Analysis of Anticancer Mechanisms in Colorectal Cancer” (International Journal of Molecular Sciences, 2024).

Data set [1] has as its system HCT 116, SW620, LoVo, Caco-2, and HT-29 cancer cell lines. Description: Alkaline comet assay (DNA damage), all cell lines. In kind it is cell-based, human. Particulars: compound at IC50, 12 h; all five cell lines. An excerpt: Single-cell gel electrophoresis, also known as the comet assay, is a rapid and sensitive method for assessing DNA damage at the single-cell level. Cells are lysed and electrophoresed. Both single-strand and double-strand breaks are detected under alkaline conditions. The released DNA is denatured and moves in the agarose gel toward the anode during electrophoresis. The image, obtained after staining with the fluorescent dye 4′,6-diamidino-2-phenylindole (DAPI), resembles a “comet” with a distinct “head” (intact DNA) and “tail” (damaged DNA fragments). The length of the tail depends on the number and size of the broken DNA strands.
Cells (1 × 10^3) were seeded in 35 mm dishes and cultured in the medium for 24 h to attain the logarithmic growth phase. […] Subsequently, cells were trypsinized and centrifuged for 10 min at 100× g at 4 °C. A small amount of PBS and a 0.5% solution of low-melting-point agarose (LMP agarose) were added to the obtained cell pellet and placed on a glass slide covered with two layers of normal-melting-point agarose (NMP agarose). The slides were incubated for 24 h in a lysis buffer (2.5 M NaCl, 100 mM, Na2EDTA, 10 mM, Tris, 1% Triton X-100) to release DNA. […] Quantitative analysis of the DNA comet image of preparations stained with DAPI solution (2 μg/L) was performed using a camera connected to a fluorescence microscope. The comet DNA analysis was performed under a Nikon Eclipse fluorescence microscope (Nikon, Tokyo, Japan) equipped with a 4910 COHU video camera (Cohu, Inc., San Diego, CA, USA) and a computer with Lucia-Comet v. […] Each time, from each preparation, 100 randomly selected comets were counted. The extent of DNA damage is quantified by measuring the length of the comet tail and the amount of DNA it contains. The Lucia Comet software calculated the percentage of DNA damage based on measurements of color intensity and comet tail length. The intensity of fluorescence was determined by the software, which calculated a series of parameters characterizing the extent of DNA damage for each cell. […]

Data set [2] concerns SW620. In words: MTT cell viability assay. In kind it is cell-based. Particulars: Homo sapiens, SW-620, 24 h incubation with compound, mean ± SD of three experiments, read-out: Cytotoxic effect, IC50. Here is the method:
(§1) The cytotoxic activity of the 3-benzylideneflavanones, 3-benzylidenechromanones derivatives (compounds 1, 2, 3, 4, 5) and 5′-(3-methoxyphenyl)-2-phenyl-4′,5′-dihydro-4H-spiro[chromano-3,3′-pirazol]-4-one (compound 3a) was evaluated using the MTT assay (4,5-dimethylthiazol-2-yl)-2,5-diphenyltetrazoliumbromide), a colorimetric method that quantifies cell viability.
(§2) Cell viability was determined using the metabolic microplate spectrophotometric assay with Methylthiazolyl diphenyltetrazolium bromide (MTT) (Sigma-Aldrich; St. Louis, MO, USA). The MTT method belongs to metabolic tests for determining cell viability and consists of measuring the absorbance of a violet solution of formazan, a product of the reduction of a water-soluble yellow MTT by oxidoreductive enzymes (mainly mitochondrial succinate dehydrogenase) of living cells. The amount of the reaction product (water-insoluble formazan crystals) is proportional to the number of living and metabolically active cells in the sample. In the case of damaged or dead cells, formazan is formed in smaller amounts, or it is not formed.
(§3) The appropriate number of cells for a given cell line (6–8 × 10^3 cells/mL) were seeded onto colorless, sterile 96-well microplates (Nunc, Roskilde, Denmark) in the number appropriate for a given cell line. After 24 h of culture, various concentrations of the studied compounds (10^−7–10^−5 M) freshly prepared in DMSO (final concentration DMS < 0.1%) and diluted with complete culture medium were added and incubated in a CO2 incubator for 24 h. After this time, the medium was removed; the cell monolayer was washed twice with sterile PBS solution; and fresh culture medium was added to the microplate wells. After 48 h of cell culture, the MTT test was performed. A volume of 50 μL of tetrazolium salt solution (final concentration 0.05 mg/mL) was added to each microplate well. The microplate was placed for 3–4 h (depending on the cell line) in a CO2 incubator. After incubation, 100 μL of DMSO was added to the wells of the microplate to dissolve the purple formazan crystals formed in the living cell environment. The absorbance of the formazan solution, after gentle mixing, was read at a wavelength of λ = 580 nm and a reference wavelength of λ = 720 nm (Biotek Power Wave HT, Biotek Instruments, Winooski, VT, USA). The percentage of living cells was calculated by comparing the absorbance value of the tested samples with the absorbance value of the control (cells not treated with compounds). The absorbance of the control was taken as 100%.

Data set [3] deals with LoVo. Description: MTT cell viability assay. In kind it is cell-based. Particulars: Homo sapiens, 24 h incubation with compound, mean ± SD of three experiments, read-out: Cytotoxic effect, IC50. Here is the method:
as §1, §2, §3

`O=C1/C(=C/c2ccccc2)COc2ccccc21` [Compound 1]: the “Genotoxic properties (comet assay)” value in data set [1] is “potent genotoxic properties”. The IC50 was 8.1 ± 1.7 µM in data set [2] and 12.6 ± 1.5 µM in data set [3].

Consider `COc1cccc(/C=C2/C(=O)c3ccccc3OC2c2ccccc2)c1` (stereo not drawn) [Compound 3], for which the “Genotoxic properties (comet assay)” value in data set [1] is on record as “potent genotoxic properties”. In addition, the IC50 in data set [2] stood at 12.4 ± 2.1 µM; in data set [3], 23.2 ± 1.4 µM.

For `O=C1/C(=C/c2ccccc2)C(c2ccccc2)Oc2ccccc21` (stereo not drawn) [Compound 5], in data set [1], the “Genotoxic properties (comet assay)” value is given as “potent genotoxic properties”. The IC50 was determined as 16.7 ± 3.1 µM in data set [2] and 19.4 ± 2.1 µM in data set [3].
